This is an account of results in paper PMC9841531, “Indole Derivatives as New Structural Class of Potent and Antiproliferative Inhibitors of Monocarboxylate Transporter 1 (MCT1; SLC16A1)” (Journal of Medicinal Chemistry, 2022).

The subject of one data set is A-549 cells. In words: 3-BP toxicity against A-549 cells (MTT). It counts as cell-based. The procedure:
(§1) The inhibitory activity of indole derivatives against MCT1 was determined by applying a functional 3-bromopyruvate (3-BP) cell viability assay, as described in the literature[20],[39] with minor modifications. In short, MCT1-expressing A-549 cells[14],[15] were exposed to the MCT1 substrate 3-BP, which becomes influxed by MCT1. 3-BP is toxic, leading to decreased cell viability. Functional inhibition of MCT1 results in reduced intracellular 3-BP levels and, thus, enhanced cell viability compared to no inhibition. […] Table 1 provides the half-maximal inhibition concentration (IC50) values of compounds 17–32.
(§2) A functional 3-BP cytotoxicity assay was conducted as described in the literature[20],[39] with minor modifications. Dilution series of compounds 17–32 between 1 nM and 1 μM were prepared in DPBS (Cell Clone, Genetix Biotech Asia, New Delhi India), and 10 μL of each concentration was pipetted into a colorless flat-bottom 96-well microplate (SPL Life Sciences, Gyeonggi-do, Republic of Korea). One hundred and eighty microliters of a cell suspension (5000 cells/well) of A-549 cells was added, and subsequently, 10 μL of 3-BP was added at a concentration of 1 mM (final concentration per well: 50 μM). The plate was kept for 72 h at 37 °C under a 5% CO2-humidified atmosphere. Cell viability was determined as described before[43] by adding 20 μL of a 5 mg/mL solution of MTT to each well and further incubation for 1 h. Eventually, the supernatant was removed and 100 μL of DMSO was added to each well. The absorbance was spectrophotometrically determined at 570 nm using a SpectraMax iD3 multi-mode microplate reader (Molecular Devices, San Jose, CA) with a background correction (690 nm). The determined absorbance values were correlated to the logarithmic concentrations of compounds 17–32, and IC50 values were calculated applying nonlinear regression using GraphPad Prism (version 8.4.0., San Diego, CA).

The target in data set [1] is T1, MCT1 (Homo sapiens, UniProt P53985).
T1 construct: MCT1-expressing A-549 cells[14],[15] were exposed to the MCT1 substrate 3-BP, which becomes influxed by MCT1; endogenous in cells; host or cells: A-549 lung cancer cells (from NCCS, Pune)
T1 sequence (P53985 1-500): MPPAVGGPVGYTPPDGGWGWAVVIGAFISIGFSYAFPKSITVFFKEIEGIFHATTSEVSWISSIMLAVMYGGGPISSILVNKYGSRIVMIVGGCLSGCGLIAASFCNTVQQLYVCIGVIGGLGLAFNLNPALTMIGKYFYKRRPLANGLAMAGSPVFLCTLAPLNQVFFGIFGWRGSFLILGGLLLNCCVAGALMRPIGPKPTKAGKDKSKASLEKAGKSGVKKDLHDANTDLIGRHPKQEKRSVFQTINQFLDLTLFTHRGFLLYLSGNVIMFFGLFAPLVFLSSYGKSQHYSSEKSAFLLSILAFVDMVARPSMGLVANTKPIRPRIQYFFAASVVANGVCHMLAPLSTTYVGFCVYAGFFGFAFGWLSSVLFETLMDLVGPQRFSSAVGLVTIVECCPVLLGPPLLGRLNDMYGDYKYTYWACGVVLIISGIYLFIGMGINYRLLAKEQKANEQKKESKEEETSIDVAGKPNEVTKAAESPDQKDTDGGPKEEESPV
T1 sequence (P35613 140-385 partner limits assumed): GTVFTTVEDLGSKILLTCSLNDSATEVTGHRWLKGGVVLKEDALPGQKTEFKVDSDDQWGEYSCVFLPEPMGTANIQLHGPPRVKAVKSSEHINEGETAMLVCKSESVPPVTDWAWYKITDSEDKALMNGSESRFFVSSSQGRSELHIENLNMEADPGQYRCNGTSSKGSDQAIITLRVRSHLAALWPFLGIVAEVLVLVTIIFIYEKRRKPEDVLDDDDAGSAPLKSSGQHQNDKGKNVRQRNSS
In words: functional 3-BP cell viability assay (MCT1 transport inhibition). It counts as cell-based. Conditions: MCT1-expressing A-549 cells, 50 μM 3-BP, 72 h; read-out: MCT1 transport inhibition IC50 ± SEM. The procedure:
as §1, §2

Data set [2] has as its target T2, ABCB1 (Homo sapiens, UniProt P08183). In words: calcein AM assay, ABCB1-expressing A2780/ADR cells. To be noted: for IC50: read-out: ABCB1 calcein AM IC50 ± SEM, A2780/ADR cells, 22, 23 constrained to reference inhibitor 34; for ABCB1 inhibition: screening at 10 μM, inhibitor if 20% (+SEM) reached.
Description: (§5) To provide a detailed picture of the pharmacological profile of the indole derivatives, we investigated their modulatory nature on the most prominent ABC transporters ABCB1 (P-glycoprotein, P-gp), ABCC1, (multidrug resistance-associated protein 1, MRP1), and ABCG2 (breast cancer resistance protein, BCRP). Here, we conducted calcein AM (ABCB1),[2],[52]−[59] daunorubicin (ABCC1),[52],[58]−[60] and pheophorbide A (ABCG2)[2],[52]−[60] assays using ABCB1-expressing A2780/ADR, ABCC1-expressing H69AR, and ABCG2-expressing MDCK II BCRP cells, respectively.
(§6) The calcein AM (ABCB1),[2],[52]−[59] daunorubicin (ABCB1[52],[60] and ABCC1[52],[58]−[60]), and pheophorbide A (ABCG2)[2],[52]−[60] assays were conducted as reported earlier. […] The data was processed using GraphPad Prism version 8.4.0, and IC50 values were determined, applying three- or four-parameter logistic equations, whatever was statistically preferred.
For a further data set, the system named is A-549 cancer cells. In words: MTT-based cell viability assay, A-549. To be noted: Homo sapiens, A549, 72 h, read-out: A-549 cancer cell toxicity GI50 ± SEM. From the text:
(§3) MCT1-expressing cells have an extraordinary energy demand and rely on pyruvate metabolism, through either lactate conversion or pyruvate consumption. Inhibition of MCT1 blocks lactate and pyruvate influx into cancer cells, which prevents their processing in the TCA cycle. Over time, the viability of cells exposed to an MCT1 inhibitor is impaired due to pyruvate deprivation, which is compensated by upregulating glucose metabolism—leading to an overconsumption of glucose. To confirm the antiproliferative nature of the indole derivatives, we investigated the compounds toward the MCT1-expressing cell lines A-549[14],[15] and MCF-7.[16] Cancer cell viability was assessed via a 3-(4,5-dimethylthiazol-2-yl)-2,5-diphenyltetrazolium bromide (MTT) assay, as reported earlier.[43]
(§4) To determine the growth inhibitory potential of compounds 17–32, […] of each compound either at concentrations between 1 and 100 μM (A-549 or MCF-7) or at 10 and 50 μM (NIH/3T3) was pipetted into colorless flat-bottom 96-well microplates. Thereafter, 180 μL of a cell suspension (5000 cells/well) of either A-549, MCF-7, or NIH/3T3 cells was added and subsequently kept for 72 h at 37 °C under a 5% CO2-humidified atmosphere. The cell viability as well as the GI50 values were determined as described above.[43]

The target of another data set is T3, ABCG2 (Homo sapiens, UniProt Q9UNQ0).
T3 sequence (Q9UNQ0 1-655): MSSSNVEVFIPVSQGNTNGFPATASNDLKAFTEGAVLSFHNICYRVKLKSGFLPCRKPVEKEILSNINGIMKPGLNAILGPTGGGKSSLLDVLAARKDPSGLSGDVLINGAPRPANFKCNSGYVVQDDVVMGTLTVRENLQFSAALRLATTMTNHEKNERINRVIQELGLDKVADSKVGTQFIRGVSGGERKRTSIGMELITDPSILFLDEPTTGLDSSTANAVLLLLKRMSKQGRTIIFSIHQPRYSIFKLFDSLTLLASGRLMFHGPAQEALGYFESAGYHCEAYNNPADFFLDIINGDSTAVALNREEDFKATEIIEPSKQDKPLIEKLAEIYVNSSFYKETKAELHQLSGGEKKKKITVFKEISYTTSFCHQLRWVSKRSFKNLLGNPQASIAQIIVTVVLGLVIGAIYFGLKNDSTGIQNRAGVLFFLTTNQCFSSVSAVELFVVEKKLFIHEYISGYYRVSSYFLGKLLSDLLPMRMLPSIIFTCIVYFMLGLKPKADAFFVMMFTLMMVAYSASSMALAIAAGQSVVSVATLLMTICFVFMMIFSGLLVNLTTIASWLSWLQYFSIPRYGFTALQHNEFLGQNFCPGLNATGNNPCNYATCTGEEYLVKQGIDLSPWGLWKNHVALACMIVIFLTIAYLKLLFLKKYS
Description: pheophorbide A assay, ABCG2-expressing MDCK II BCRP cells. Conditions: for ABCG2 inhibition: screening at 10 μM, inhibitor if 20% (+SEM) reached.

The target of another data set is T4, ABCG2 (BCRP) (Homo sapiens, UniProt Q9UNQ0).
T4 sequence (Q9UNQ0 1-655): T3 sequence (Q9UNQ0 1-655)
The description is as above. Conditions: human, ABCG2-expressing MDCK II BCRP cells, probe pheophorbide A (0.5 μM final).

The target of a further data set is ABCC1 (Homo sapiens, UniProt P33527). In words: daunorubicin assay, ABCC1-expressing H69AR cells. Conditions: for inhibition at 10 µM: H69AR, read-out: inhibition of ABCC1 in screening; for IC50: read-out: ABCC1 daunorubicin IC50 ± SEM, H69AR cells, 22, 23 constrained to reference inhibitor 35; for ABCC1 inhibition: screening at 10 μM, inhibitor if 20% (+SEM) reached.

A further data set has as its system MCF-7 cancer cells. In words: MTT-based cell viability assay, MCF-7. To be noted: Homo sapiens, MCF7, 72 h, read-out: MCF-7 cancer cell toxicity GI50 ± SEM.
Description: as §3, §4

Data set [3] deals with T1, MCT1. Conditions: cited from earlier work.
Data set [4] concerns the target T2, ABCB1. In words: daunorubicin assay, ABCB1-expressing A2780/ADR cells. It counts as cell-based. To be noted: A2780/ADR cells; read-out: ABCB1 daunorubicin IC50 ± SEM.
Data set [5] deals with ABCB1 (P-glycoprotein, P-gp) (Homo sapiens, UniProt P08183). The data set is described as above. To be noted: human, ABCB1-expressing A2780/ADR cells, probe daunorubicin (3 μM final); relative to reference inhibitor 34 = 100%; read-out: maximal inhibition (Imax), ABCB1 daunorubicin. It is filed as cell-based.

Bounds are passed on as bounds.

For orientation: GI50 means the concentration at which growth is held to half of that of the control. The inhibition is the share of the control response that was lost under treatment. As a reminder, the IC50 is the midpoint of a concentration-inhibition curve.

Sequence of ABCC1 (P33527 whole entry): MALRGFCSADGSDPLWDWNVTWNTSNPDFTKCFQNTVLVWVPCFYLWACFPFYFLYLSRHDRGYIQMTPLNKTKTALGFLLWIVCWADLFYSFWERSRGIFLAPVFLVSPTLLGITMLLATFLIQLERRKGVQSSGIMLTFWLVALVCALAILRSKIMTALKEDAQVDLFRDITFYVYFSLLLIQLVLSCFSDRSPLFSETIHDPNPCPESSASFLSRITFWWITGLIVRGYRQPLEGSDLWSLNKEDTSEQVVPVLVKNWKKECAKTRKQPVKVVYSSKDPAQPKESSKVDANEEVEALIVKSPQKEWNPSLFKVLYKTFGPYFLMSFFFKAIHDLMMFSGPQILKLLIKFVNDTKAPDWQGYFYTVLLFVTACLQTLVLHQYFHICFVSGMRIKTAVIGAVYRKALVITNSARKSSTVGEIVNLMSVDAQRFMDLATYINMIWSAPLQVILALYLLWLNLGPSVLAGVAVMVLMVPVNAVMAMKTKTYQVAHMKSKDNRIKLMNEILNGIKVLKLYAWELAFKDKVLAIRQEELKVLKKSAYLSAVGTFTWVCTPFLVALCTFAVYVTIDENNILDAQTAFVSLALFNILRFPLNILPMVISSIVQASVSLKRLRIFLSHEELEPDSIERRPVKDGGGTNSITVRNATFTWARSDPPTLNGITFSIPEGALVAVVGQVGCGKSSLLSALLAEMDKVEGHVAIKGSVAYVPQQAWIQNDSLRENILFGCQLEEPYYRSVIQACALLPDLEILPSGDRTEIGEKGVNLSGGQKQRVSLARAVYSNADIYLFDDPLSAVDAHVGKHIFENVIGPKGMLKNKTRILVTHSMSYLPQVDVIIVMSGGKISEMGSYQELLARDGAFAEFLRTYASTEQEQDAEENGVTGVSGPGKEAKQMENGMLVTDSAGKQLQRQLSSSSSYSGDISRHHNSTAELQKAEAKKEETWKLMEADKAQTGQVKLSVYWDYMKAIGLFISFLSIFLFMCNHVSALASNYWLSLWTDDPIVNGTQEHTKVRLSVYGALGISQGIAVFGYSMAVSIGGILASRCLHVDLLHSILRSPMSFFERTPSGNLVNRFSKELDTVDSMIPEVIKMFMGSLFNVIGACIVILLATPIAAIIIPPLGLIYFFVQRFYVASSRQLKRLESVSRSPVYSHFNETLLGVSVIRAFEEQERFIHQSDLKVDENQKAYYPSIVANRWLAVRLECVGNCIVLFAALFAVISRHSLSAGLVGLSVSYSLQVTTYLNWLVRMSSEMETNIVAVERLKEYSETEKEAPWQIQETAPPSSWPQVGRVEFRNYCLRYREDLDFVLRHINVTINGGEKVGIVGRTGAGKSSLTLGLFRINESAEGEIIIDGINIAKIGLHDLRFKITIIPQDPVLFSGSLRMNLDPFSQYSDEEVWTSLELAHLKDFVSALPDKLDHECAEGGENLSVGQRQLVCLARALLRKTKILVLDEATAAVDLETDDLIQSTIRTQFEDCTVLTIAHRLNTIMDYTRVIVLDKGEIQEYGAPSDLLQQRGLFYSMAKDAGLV
T2 sequence (P08183 whole entry): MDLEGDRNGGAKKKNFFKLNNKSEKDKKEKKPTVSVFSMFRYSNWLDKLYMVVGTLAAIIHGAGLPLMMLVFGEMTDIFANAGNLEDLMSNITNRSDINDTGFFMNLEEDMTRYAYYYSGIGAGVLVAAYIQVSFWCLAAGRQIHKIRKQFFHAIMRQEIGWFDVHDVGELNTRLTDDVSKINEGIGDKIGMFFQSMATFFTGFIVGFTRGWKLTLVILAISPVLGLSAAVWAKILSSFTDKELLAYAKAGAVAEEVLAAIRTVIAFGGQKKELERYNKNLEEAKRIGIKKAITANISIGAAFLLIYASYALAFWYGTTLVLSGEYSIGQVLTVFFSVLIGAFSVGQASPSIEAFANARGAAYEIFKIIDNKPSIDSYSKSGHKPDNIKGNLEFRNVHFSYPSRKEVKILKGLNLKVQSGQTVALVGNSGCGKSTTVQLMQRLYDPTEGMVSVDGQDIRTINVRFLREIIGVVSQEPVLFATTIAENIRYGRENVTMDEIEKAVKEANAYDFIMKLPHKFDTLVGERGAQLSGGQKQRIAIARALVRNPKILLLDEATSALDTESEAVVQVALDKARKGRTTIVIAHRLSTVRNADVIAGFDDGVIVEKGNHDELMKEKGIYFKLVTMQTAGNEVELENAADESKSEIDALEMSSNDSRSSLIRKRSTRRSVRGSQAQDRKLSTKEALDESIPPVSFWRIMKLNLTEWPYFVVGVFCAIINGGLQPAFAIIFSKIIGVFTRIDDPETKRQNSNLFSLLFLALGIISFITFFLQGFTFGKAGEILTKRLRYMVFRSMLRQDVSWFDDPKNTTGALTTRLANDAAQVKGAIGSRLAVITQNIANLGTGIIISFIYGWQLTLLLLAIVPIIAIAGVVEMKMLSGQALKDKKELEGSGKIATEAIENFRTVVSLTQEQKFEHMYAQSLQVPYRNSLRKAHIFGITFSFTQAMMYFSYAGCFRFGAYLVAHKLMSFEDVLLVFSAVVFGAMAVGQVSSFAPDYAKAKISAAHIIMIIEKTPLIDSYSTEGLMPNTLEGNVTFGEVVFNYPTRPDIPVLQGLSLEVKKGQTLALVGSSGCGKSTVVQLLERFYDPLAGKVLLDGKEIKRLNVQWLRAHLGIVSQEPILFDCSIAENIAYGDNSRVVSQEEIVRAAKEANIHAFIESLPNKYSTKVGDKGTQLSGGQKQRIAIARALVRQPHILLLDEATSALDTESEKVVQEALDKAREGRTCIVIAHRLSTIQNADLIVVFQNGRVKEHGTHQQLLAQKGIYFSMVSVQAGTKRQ
Sequence of ABCB1 (P-glycoprotein, P-gp) (P08183 whole entry): as above
Description for ABCC1: as §5, §6
Description for ABCG2 (BCRP): as §5, §6

`O=C(O)C(=O)CBr` [3-BP, 3-bromopyruvate]: in the data set on A-549 cells (A-549 cells), the “GI90 of 3-BP” value came to 49.8 ± 0.6 µM. The GI50 with A-549 cells (Homo sapiens, A549, read-out: half-maximal growth inhibition (GI50) of 3-BP, A-549 cells) is 25 ± 0.4 µM. In addition, the inhibition at 50 µM in the data set on A-549 cells (Homo sapiens, A549, 50 μM 3-BP, read-out: inhibition of A-549 cell growth) was no less than 90%.

For `COC(=O)/C(C#N)=C/c1cn(CC(=O)Nc2cccc(OC)c2)c2ccccc12` [Compound 23, Methyl-2-cyano-3-(1-(2-((3-methoxyphenyl)amino)-2-oxoethyl)-1H-indol-3-yl) Acrylate], the IC50 on MCT1 [1] amounted to 0.105 ± 0.009 µM. Also, on ABCB1 [2], the half-inhibitory concentration (IC50) is 5.32 ± 1.67 µM and the ABCB1 inhibition result is “X (Compounds were considered as inhibitors if they reached 20% (+SEM) inhibition compared to the reference inhibitors 33–35; X = fulfilled)”. In the data set with A-549 cancer cells, the GI50 is 25.5 ± 0.5 µM. For the same compound, on ABCG2, the IC50 was 43.5 ± 7.5 µM and the ABCG2 inhibition result is given as “X (Compounds were considered as inhibitors if they reached 20% (+SEM) inhibition compared to the reference inhibitors 33–35; X = fulfilled)”. This compound registered an inhibition at 120 min, 10 μM at ABCG2 (BCRP) of no less than 20%. Moreover, at ABCC1, the inhibition at 10 µM is no less than 20%, the IC50 came out at 19.1 ± 3.4 µM and the ABCC1 inhibition result is given as “X (Compounds were considered as inhibitors if they reached 20% (+SEM) inhibition compared to the reference inhibitors 33–35; X = fulfilled)”. In the data set with MCF-7 cancer cells, the GI50 is 14.7 ± 0.2 µM.

For the compound `N#C/C(=C\c1ccc(O)cc1)C(=O)O` [Compound 8, reference compound], at MCT1 [1], the half-inhibitory concentration (IC50) is 0.0872 ± 0.0035 µM. The GI50 with A-549 cancer cells came out at 52.7 ± 0.2 µM; with MCF-7 cancer cells it was 108 ± 3 µM. On MCT1 [3], the “inhibitory power (MCT1) in the literature” value is recorded as “submillimolar to low micromolar concentration ranges”.

For `COC(=O)/C(C#N)=C/c1cn(CC(=O)Nc2ccccc2OC)c2ccccc12` [Compound 22, Methyl-2-cyano-3-(1-(2-((2-methoxyphenyl)amino)-2-oxoethyl)-1H-indol-3-yl) Acrylate], the half-inhibitory concentration (IC50) on MCT1 [1] was 0.135 ± 0.002 µM. Moreover, at ABCB1 [2], the half-maximal inhibitory concentration (IC50) is 24.3 ± 6.4 µM and the ABCB1 inhibition entry is reported as “X (Compounds were considered as inhibitors if they reached 20% (+SEM) inhibition compared to the reference inhibitors 33–35; X = fulfilled)”. Besides, the GI50 in the data set on A-549 cancer cells turned out to be 26 ± 0.3 µM. Besides, on ABCG2, the half-maximal inhibitory concentration (IC50) turned out to be 99.5 ± 24.5 µM and the ABCG2 inhibition result was “X (Compounds were considered as inhibitors if they reached 20% (+SEM) inhibition compared to the reference inhibitors 33–35; X = fulfilled)”. Moreover, the inhibition at 120 min, 10 μM against ABCG2 (BCRP) was no less than 20%. At ABCC1, the inhibition at 10 µM is no less than 20%, the half-maximal inhibitory concentration (IC50) turned out to be 17.3 ± 2.2 µM and the ABCC1 inhibition entry was “X (Compounds were considered as inhibitors if they reached 20% (+SEM) inhibition compared to the reference inhibitors 33–35; X = fulfilled)”. In addition, the GI50 with MCF-7 cancer cells was determined as 19.1 ± 0.5 µM.

As to `COC(=O)/C(C#N)=C/c1cn(CC(=O)Nc2ccc(Br)cn2)c2ccccc12` [Compound 31, Methyl-3-(1-(2-((5-bromopyridin-2-yl)amino)-2-oxoethyl)-1H-indol-3-yl)-2-cyanoacrylate], the 50% inhibitory concentration (IC50) on ABCB1 [4] was 1.19 ± 0.12 µM; on MCT1 [1], 0.214 ± 0.032 µM; at ABCB1 [2], 1.4 ± 0.11 µM. Further, the inhibition at 180 min in data set [5] stood at 39%. Besides, the ABCB1 inhibition result at ABCB1 [2] was “X (Compounds were considered as inhibitors if they reached 20% (+SEM) inhibition compared to the reference inhibitors 33–35; X = fulfilled)”. For the same compound, the GI50 with A-549 cancer cells came out at 18.8 ± 0.2 µM; in the data set with MCF-7 cancer cells, 3.13 ± 0.23 µM. At ABCC1, the ABCC1 inhibition entry was “X (Compounds were considered as inhibitors if they reached 20% (+SEM) inhibition compared to the reference inhibitors 33–35; X = fulfilled)”.
